Here are results for two molecules from US20110003694A1, “USE OF SOLUTIONS OF MINT OIL OR OF L-CARVONE FOR THE FUNGICIDAL AND/OR ANTI-GERMINATING TREATMENT OF BULBS AND/OR TUBERS” (Zone Artisanale La Crau Route Nationale 7, priority 2007, published 2011).

The subject of this assay is silver scurf (Helminthosporium solani). Put plainly: Silver scurf coverage on Roseval potatoes after three months storage. The assay is classed as in vivo. Particulars: three months storage at 8° C., thermal fogging. As for the experimental part:
Roseval potatoes were treated by thermal fogging with mint oil at 90 g/tonne, or with 67-72 g/tonne of L-carvone, then three times at 30 g/tonne, or 22.5-24 g/tonne of L-carvone, at 21-day intervals. They were then stored for three months at 8° C. The silver scurf coverage rates were measured on the batches treated with L-carvone and on the controls treated by thermal fogging with CIPC at 200 g/L at a dose of 60 ml/tonne for the first application then at 40 ml/tonne for the subsequent applications.

Take `C=C(C)C1CC=C(C)C(=O)C1` [L-carvone, 2-methyl-5-(1-methylethenyl)-2-cyclohexen-1-one]: the “Coverage 5-75% (%) Class 4” value is given as 0.0%, the “Coverage 6-25% (%) Class 2” value worked out at 0.0 b %, the “Coverage 26-50% (%) Class 3” value was determined as 0.0 b % and the “Coverage >75% (%) Class 5” value is 0.0%. Moreover, the “Coverage ≦5% (%) Class 1” value is 28.5%, the “Silver scurf index (0-100)” value stood at 0.8 b and the “Undamaged tubers (%) Class 0” value worked out at 71.5 a %.

`CC(C)OC(=O)Nc1cccc(Cl)c1` [Thermo reference]: the “Coverage 5-75% (%) Class 4” value is given as 0.7%, the “Coverage 6-25% (%) Class 2” value came out at 7.7 a %, the “Coverage 26-50% (%) Class 3” value is on record as 3.9 a % and the “Coverage >75% (%) Class 5” value is on record as 1.5%. The “Coverage ≦5% (%) Class 1” value was found to be 26.2%, the “Silver scurf index (0-100)” value was determined as 5.7 a and the “Undamaged tubers (%) Class 0” value is recorded as 60.2 b %.
